Measured values reported in patent US10905118B2, “Triscationic amphiphile compounds, compositions, and methods for making same” (James Madison Innovations, Inc., priority 2014, dated 2021).

What was measured:
Enterococcus faecalis = test: Minimum inhibitory concentration, E. faecalis; format: cell-based, Enterococcus faecalis ATCC 29212; conditions: Mueller-Hinton Broth, 37° C., 72 h
Method: (§1) The MIC values of all compounds from both double-tailed series were determined for four Gram-positive (Staphylococcus aureus, Enterococcus faecalis, Streptococcus agalactiae, and Bacillus cereus) and two Gram-negative (Escherichia coli and Pseudomonas aeruginosa) strains, which are shown in Table 3.
(§2) The Gram-positive bacterial strains used tested were Staphylococcus aureus subsp. aureus ATCC® 29213™, Enterococcus faecalis ATCC® 29212™, Bacillus cereus, and Streptococcus agalactiae J48.^58 The Gram-negative bacterial strains used were Escherichia coli ATCC® 25922™ and Pseudomonas aeruginosa ATCC® 27853™. All strains were grown in 1× Mueller-Hinton Broth at 37° C. for 12-24 h. For the MIC and combination studies, bacterial suspensions were prepared by diluting overnight cultures to 5×10^6 CFU/mL in 2× Mueller-Hinton Broth, so that when amphiphile solutions are added the final broth strength is 1×.
(§3) The methods used to determine the MIC and MBC were performed as previously described and followed the standards set forth by the Clinical and Laboratory Standards Institute (See Ladow, J. E.; Warnock, D. C.; Hamill, K. M.; Simmons, K. L.; Davis, R. W.; Schwantes, C. R.; Flaherty, D. C.; Willcox, J. A. L.; Wilson-Henjum, K.; Caran, K. L.; Minbiole, K. P. C.; Seifert, K. Bicephalic amphiphile architecture affects antibacterial activity. Eur. J. Med. Chem. 2011, 46, 4219-4226 and P. A. Wayne Methods for dilution antimicrobial tests for bacteria that grow aerobically. 2009.). Briefly, compounds were serially diluted and 100 μL of each dilution were added to the wells of a 96-well flat-bottomed microtiter plate in triplicate. After adding 100 μL of the bacterial cell suspension, the plates were incubated at 37° C. for 72 h. […] The MIC was considered to be bactericidal if the MBC was the same concentration or one concentration higher in the dilution series as the MIC, per Motyl, M.; Dorso, K.; Barrett, J.; Giacobbe, R. Basic microbiological techniques used in antibacterial drug discovery. Curr. Protoc. Pharmacol. 2006, Chapter 13.

Streptococcus agalactiae = test: Minimum inhibitory concentration, S. agalactiae; format: cell-based, Streptococcus agalactiae J48; conditions: Mueller-Hinton Broth, 37° C., 72 h
Method: as §1, §2, §3

Escherichia coli = test: Minimum inhibitory concentration, E. coli; format: cell-based, Escherichia coli ATCC 25922; conditions: Mueller-Hinton Broth, 37° C., 72 h
Method: as §1, §2, §3

Bacillus cereus = test: Minimum inhibitory concentration, B. cereus; format: cell-based; conditions: Mueller-Hinton Broth, 37° C., 72 h
Method: as §1, §2, §3

Pseudomonas aeruginosa = test: Minimum inhibitory concentration, P. aeruginosa; format: cell-based, Pseudomonas aeruginosa ATCC 27853; conditions: Mueller-Hinton Broth, 37° C., 72 h
Method: as §1, §2, §3

Staphylococcus aureus = test: Minimum inhibitory concentration, S. aureus; format: cell-based, Staphylococcus aureus subsp. aureus ATCC 29213; conditions: Mueller-Hinton Broth, 37° C., 72 h
Method: as §1, §2, §3

[1] = Isothermal titration calorimetry: critical aggregation concentration and thermodynamics of aggregation; format: physicochemical; conditions: for −TΔSmic: Gibbs-Helmholtz equation; for −TΔSmic / ΔGmic: double-tailed series; for ΔGmic: approximated with RT ln(CAC/55.5); for CMC / ΔHmic: pure water, double-tailed M-P and M-1 series; for −TΔSagg term (sign, in words): Table 1
Method: Isothermal titration calorimetry (ITC) was used to determine the critical aggregation concentration (CAC) and the thermodynamic parameters at 37° C. associated with aggregate formation for each double-tailed amphiphile for the M-P and M-1 series, as shown in Table 1.
A Nano ITC was used to measure the heat change associated with the deaggregation of amphiphiles via power compensation. A concentrated aqueous solution of amphiphile (>>CAC) was titrated into a thermally controlled sample cell, initially containing pure water, in a series of discrete injections. Isothermal titration calorimetry was used to determine the critical aggregation concentration (CAC) and ΔHagg. Shown in FIG. 5 is the heat rate associated with each injection versus time for 9 (M-1,14,14). Shown in FIG. 6 is the integration of the heat per injection normalized by the number of moles of each injection versus the increasing concentration of amphiphile in the well. In FIG. 6, inset, CAC is determined by calculating the first derivative the heat curve.
During initial injections (Range I), measured heat changes are due to both the dilution of aggregates and deaggregation. This can be observed in the first 10 injections, where aggregates absorbed heat and disassociated into dissolved monomers. The heat change produced by each injection was approximately constant in this range. In Range II, injected aggregates don't fully dissociate, reducing the total absorbed heat for each subsequent injection. At concentrations well above the CAC (Range III), absorbed heat is attributed only to the dilution of aggregates and is approximately constant. […] CAC and thermodynamic data were not determined for the amphiphiles with the shortest tails [1 (M-P,8,8) and 6 (M-1,8,8)] because the heat evolved during injection was […] the threshold of the instrument.
The difference between the average heat of injections in Range I, representing the total heat due to the dilution of aggregates and deaggregation, and the average heat of injections in Range III, representing the heat due solely to the dilution of aggregates, gives the heat of deaggregation, ΔHdeagg. The ΔHdeagg for compound 9 (M-1,14,14) is 37 kJ/mol, corresponding to a heat of aggregate formation, ΔHagg, of −37 kJ/mol (ΔHagg=−ΔHdeagg).
The ΔGagg can be approximated for the aggregation of nonionic amphiphiles by the equation: ΔGagg=RT ln(CAC/55.5) (3)
where m is the concentration of counterions that associate with a aggregate and n is the number of monomers that associate to form an aggregate. […] BBA-Biomembranes. 2000, 1508, 69-85.)
The entropy of aggregation (ΔSagg) is dictated by a combination of entropic factors that favor or disfavor aggregate formation and can be approximated using the Gibbs-Helmholtz equation: ΔGagg=ΔHagg−TΔSagg (5)
CAC and ΔHagg were determined using a Nano-ITC (TA-Instruments). Prior to each experiment the sample cell was washed with dH2O (300 mL), ethanol (100 mL), dH2O (300 mL) and nanopure water (200 mL). Next, 950 μL of nanopure water was added to the sample cell. A concentrated aqueous solution (>>CAC) of amphiphile was prepared and equilibrated at 37° C. A 250 μL syringe was filled with the aqueous solution, and loaded into the Nano ITC. Multiple single injections in aliquots of 5 μL were injected into the sample cell with time intervals varying from 300 s to 1400 s. Samples were continuously stirred (300 rpm) throughout the titration. The Nano-Analyze program (TA-Instruments) was used to analyze the data. CAC and ΔHagg values reported are the average of two or more repeat experiments for each amphiphile.

Row | Structure (SMILES) | MIC E. faecalis (G+) (Enterococcus faecalis) | MIC S. agalactiae (G+) (Streptococcus agalactiae) | MIC E. coli (G−) (Escherichia coli) | MIC B. cereus (G+) (Bacillus cereus) | MIC P. aeruginosa (G−) (Pseudomonas aeruginosa) | MIC S. aureus (G+) (Staphylococcus aureus) | −TΔSmic ([1]; 37° C.) | ΔGmic ([1]; 37° C.) | CMC ([1]; ITC, 37° C.) | ΔHmic ([1]; ITC, 37° C.) | −TΔSagg term (sign, in words) [1] | ΔHagg ([1]; ITC, 37° C.) | ΔHdeagg (heat of deaggregation) ([1]; ITC, 37° C., Range I minus Range III)
1 | CCCCCCCC[N+](C)(C)Cc1cc(C[N+](C)(C)C)cc(C[N+](C)(C)CCCCCCCC)c1.[Br-].[Br-].[Br-] [Compound 6] | >250 µM | >250 µM | >250 µM | >250 µM | >250 µM | >250 µM |  |  |  |  |  |  | 
2 | CCCCCCCCCCCCCCCC[N+](C)(C)Cc1cc(C[N+](C)(C)C)cc(C[N+](C)(C)CCCCCCCCCCCCCCCC)c1.[Br-].[Br-].[Br-] [Compound 10] | 32 µM | 8 µM | 63 µM | 16 µM | >250 µM | 16 µM | -5.26 kcal/mol | -7.89 kcal/mol | 0.16 mM | -13.1 kcal/mol | positive |  | 
3 | CCCCCCCCCCCCCCCC[N+](C)(C)Cc1cc(C[n+]2ccccc2)cc(C[N+](C)(C)CCCCCCCCCCCCCCCC)c1.[Br-].[Br-].[Br-] [Compound 5] | 32 µM | 4 µM | 125 µM | 32 µM | >250 µM | 32 µM | -2.2 kcal/mol | -7.89 kcal/mol | 0.18 mM | -10 kcal/mol | positive |  | 
4 | CCCCCCCCCC[N+](C)(C)Cc1cc(C[n+]2ccccc2)cc(C[N+](C)(C)CCCCCCCCCC)c1.[Br-].[Br-].[Br-] [Compound 2] | 8 µM | 8 µM | 16 µM | 8 µM | 63 µM | 2 µM | 2.39 kcal/mol | -5.02 kcal/mol | 14 mM | -2.63 kcal/mol | negative |  | 
5 | CCCCCCCCCCCC[N+](C)(C)Cc1cc(C[N+](C)(C)C)cc(C[N+](C)(C)C)c1.[Br-].[Br-].[Br-] [Compound S3] | 250 µM | 125 µM | >250 µM | 63 µM | >250 µM | 63 µM |  |  |  |  |  |  | 
6 | CCCCCCCC[N+](C)(C)Cc1cc(C[n+]2ccccc2)cc(C[N+](C)(C)CCCCCCCC)c1.[Br-].[Br-].[Br-] [Compound 1] | >250 µM | >250 µM | >250 µM | >250 µM | >250 µM | >250 µM |  |  |  |  |  |  | 
7 | CCCCCCCCCCCC[N+](C)(C)Cc1cc(C[N+](C)(C)C)cc(C[N+](C)(C)CCCCCCCCCCCC)c1.[Br-].[Br-].[Br-] [Compound 8] | 2 µM | 2 µM | 4 to 8 µM | 2 µM | 16 µM | 2 µM | 0.0196 kcal/mol | -6.21 kcal/mol | 2.5 mM | -6.21 kcal/mol | negative |  | 
8 | CCCCCCCC[N+](C)(C)Cc1cc(C[N+](C)(C)C)cc(C[N+](C)(C)C)c1.[Br-].[Br-].[Br-] [Compound S1] | >250 µM | >250 µM | >250 µM | >250 µM | >250 µM | >250 µM |  |  |  |  |  |  | 
9 | CCCCCCCCCCCCCC[N+](C)(C)Cc1cc(C[N+](C)(C)C)cc(C[N+](C)(C)CCCCCCCCCCCCCC)c1.[Br-].[Br-].[Br-] [Compound 9] | 4 µM | 2 to 4 µM | 8 µM | 4 µM | 125 µM | 4 to 8 µM | -1.91 kcal/mol | -6.93 kcal/mol | 0.61 mM | -8.84 kcal/mol | positive | -8.84 kcal/mol | 8.84 kcal/mol
10 | CCCCCCCCCC[N+](C)(C)Cc1cc(C[N+](C)(C)C)cc(C[N+](C)(C)C)c1.[Br-].[Br-].[Br-] [Compound S2] | 250 µM | 125 µM | >250 µM | 125 µM | >250 µM | >250 µM |  |  |  |  |  |  | 
